The record followed here is ChEMBL document CHEMBL5465560, “Selectivity Literature for EUbOPEN Chemogenomic Library” (2024).

Assay [1] concerns the target Calcium/calmodulin-dependent protein kinase kinase 1 (Homo sapiens) (UniProt Q8N5S9). Nature of the assay: Selectivity interaction (LanthaScreen Eu Kinase Binding Assay) EUB0001632a CAMKK1. The note with it: at 10 µM.
Assay [2] has as its target Sodium- and chloride-dependent GABA transporter 1 (Homo sapiens) (UniProt P30531). Briefly: Selectivity interaction (Eurofins CEREP Diversity Profile (receptors and ion channels)) EUB0000279b SLC6A1. The note with it: at 10 µM.
The target of assay [3] is Ribosomal protein S6 kinase alpha-3 (Homo sapiens, UniProt P51812). Nature of the assay: Selectivity interaction (KinomeScan (DiscoverX)) EUB0000607a RPS6KA3. The following applies: at 10 µM.
In assay [4] the target is T1, Phosphorylase b kinase gamma catalytic chain, liver/testis isoform (Homo sapiens) (UniProt P15735).
T1 sequence (whole entry): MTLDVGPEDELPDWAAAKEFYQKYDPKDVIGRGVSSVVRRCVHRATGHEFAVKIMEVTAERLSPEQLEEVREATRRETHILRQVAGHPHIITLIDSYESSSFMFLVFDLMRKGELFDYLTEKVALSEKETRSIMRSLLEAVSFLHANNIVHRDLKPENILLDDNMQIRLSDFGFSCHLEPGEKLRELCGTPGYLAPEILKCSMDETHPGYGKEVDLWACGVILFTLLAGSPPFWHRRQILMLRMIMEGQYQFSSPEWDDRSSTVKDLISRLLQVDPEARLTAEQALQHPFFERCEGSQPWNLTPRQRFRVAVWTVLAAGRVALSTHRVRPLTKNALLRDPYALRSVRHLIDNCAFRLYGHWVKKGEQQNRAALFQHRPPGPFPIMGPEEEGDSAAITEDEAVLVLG
The following applies: at 10 µM.

For assay [5], the target named is Serine/threonine-protein kinase PRP4 homolog (Homo sapiens) (UniProt Q13523). Nature of the assay: Selectivity interaction (ActivX KiNativ screen (kinase selectivity in THP-1 cell lysates)) EUB0000639a PRPF4. The format is subcellular. The following applies: lysate, at 0.01 µM.
Assay [6] has as its target Calcium/calmodulin-dependent protein kinase kinase 2 (Homo sapiens) (UniProt Q96RR4). Briefly: Selectivity interaction (ActivX KiNativ screen (kinase selectivity in THP-1 cell lysates)) EUB0000639a CAMKK2. The note with it: lysate, at 0.01 µM. The format is subcellular.
Assay [7] concerns the target Calcium/calmodulin-dependent protein kinase type 1 (Homo sapiens) (UniProt Q14012). Briefly: Selectivity interaction (ActivX KiNativ screen (kinase selectivity in THP-1 cell lysates)) EUB0000639a CAMK1. The format is subcellular. The following applies: lysate, at 1 µM.
Assay [8] addresses Histone-lysine N-methyltransferase, H3 lysine-36 specific (Homo sapiens) (UniProt Q96L73). The note with it: at 10 µM.
Assay [9] deals with Homeodomain-interacting protein kinase 1 (Homo sapiens, UniProt Q86Z02). Nature of the assay: Selectivity interaction (Ambit KINOMEscan and KiNATiv profiling in Jurkat cells) EUB0000090b HIPK1. The format is cell-based. The following applies: at 1 µM.
Assay [10] has as its target Maternal embryonic leucine zipper kinase (Homo sapiens) (UniProt Q14680). Nature of the assay: Selectivity interaction (KinomeScan (DiscoverX)) EUB0001049a MELK. The note with it: at 1 µM.
In assay [11] the target is Fibroblast growth factor receptor 2 (Homo sapiens) (UniProt P21802). Nature of the assay: Selectivity interaction (Kinase panel (DSF assay)) EUB0001558a FGFR2.
Assay [12] addresses T2, Dual specificity mitogen-activated protein kinase kinase 6 (Homo sapiens) (UniProt P52564).
T2 sequence (whole entry): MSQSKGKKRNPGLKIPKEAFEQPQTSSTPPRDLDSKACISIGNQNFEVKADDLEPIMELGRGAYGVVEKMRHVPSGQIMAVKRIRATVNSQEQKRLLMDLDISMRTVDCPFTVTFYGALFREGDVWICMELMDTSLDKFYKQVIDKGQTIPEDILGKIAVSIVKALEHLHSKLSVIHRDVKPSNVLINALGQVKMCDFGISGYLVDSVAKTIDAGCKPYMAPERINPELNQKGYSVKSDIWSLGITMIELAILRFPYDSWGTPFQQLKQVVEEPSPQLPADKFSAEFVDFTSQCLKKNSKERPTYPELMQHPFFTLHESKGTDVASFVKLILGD
Nature of the assay: Selectivity interaction (KinomeScan (DiscoverX)) EUB0001079a MAP2K6. The following applies: at 1 µM.

Assay [13] has as its target RAF proto-oncogene serine/threonine-protein kinase (Homo sapiens) (UniProt P04049). Nature of the assay: Selectivity interaction (KinomeScan (DiscoverX)) EUB0000229b RAF1. The following applies: at 10 µM.
Assay [14] has as its target T3, Phosphatidylinositol 4,5-bisphosphate 3-kinase catalytic subunit delta isoform (Homo sapiens) (UniProt O00329).
T3 sequence (whole entry): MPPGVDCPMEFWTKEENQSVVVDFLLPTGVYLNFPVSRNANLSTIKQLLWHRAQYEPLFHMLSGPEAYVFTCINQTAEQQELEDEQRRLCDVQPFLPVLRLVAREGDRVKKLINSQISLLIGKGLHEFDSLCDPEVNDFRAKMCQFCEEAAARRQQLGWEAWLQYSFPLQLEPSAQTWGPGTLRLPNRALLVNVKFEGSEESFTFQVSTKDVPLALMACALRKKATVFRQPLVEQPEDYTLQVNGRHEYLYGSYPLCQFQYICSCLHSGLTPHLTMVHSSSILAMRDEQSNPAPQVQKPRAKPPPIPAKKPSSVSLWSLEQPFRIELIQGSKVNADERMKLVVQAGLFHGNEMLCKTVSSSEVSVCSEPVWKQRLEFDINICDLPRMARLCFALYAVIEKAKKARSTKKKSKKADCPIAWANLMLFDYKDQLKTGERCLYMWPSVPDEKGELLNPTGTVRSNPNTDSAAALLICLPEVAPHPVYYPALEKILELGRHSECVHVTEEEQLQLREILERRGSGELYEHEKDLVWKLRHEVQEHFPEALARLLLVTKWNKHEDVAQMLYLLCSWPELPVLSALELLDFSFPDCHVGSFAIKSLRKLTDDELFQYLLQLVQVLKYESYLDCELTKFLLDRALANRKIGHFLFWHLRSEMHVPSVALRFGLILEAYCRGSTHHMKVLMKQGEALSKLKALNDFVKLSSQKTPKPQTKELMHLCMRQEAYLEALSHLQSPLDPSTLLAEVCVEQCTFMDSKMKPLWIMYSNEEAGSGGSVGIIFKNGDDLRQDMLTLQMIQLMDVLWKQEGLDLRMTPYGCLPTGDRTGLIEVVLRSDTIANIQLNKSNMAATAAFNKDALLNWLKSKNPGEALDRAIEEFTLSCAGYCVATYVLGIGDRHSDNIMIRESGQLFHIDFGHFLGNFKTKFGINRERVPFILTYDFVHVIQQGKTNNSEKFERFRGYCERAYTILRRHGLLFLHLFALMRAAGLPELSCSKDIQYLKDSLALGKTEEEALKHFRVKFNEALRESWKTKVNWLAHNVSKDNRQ
Nature of the assay: Selectivity interaction (Kinase panel (KiNativ target engagement assay in Jurkat cells)) EUB0001635a PIK3CD. The assay is classed as cell-based. The note with it: Selectivity number of off-targets 0.0, Selectivity number of targets 233.0, Source Knowledge https://www.sciencedirect.com/science/article/pii/S2451945619300674?via%3Dihub, at 1 µM.

Sequence of Calcium/calmodulin-dependent protein kinase type 1 (Homo sapiens) (Q14012 whole entry, looked up): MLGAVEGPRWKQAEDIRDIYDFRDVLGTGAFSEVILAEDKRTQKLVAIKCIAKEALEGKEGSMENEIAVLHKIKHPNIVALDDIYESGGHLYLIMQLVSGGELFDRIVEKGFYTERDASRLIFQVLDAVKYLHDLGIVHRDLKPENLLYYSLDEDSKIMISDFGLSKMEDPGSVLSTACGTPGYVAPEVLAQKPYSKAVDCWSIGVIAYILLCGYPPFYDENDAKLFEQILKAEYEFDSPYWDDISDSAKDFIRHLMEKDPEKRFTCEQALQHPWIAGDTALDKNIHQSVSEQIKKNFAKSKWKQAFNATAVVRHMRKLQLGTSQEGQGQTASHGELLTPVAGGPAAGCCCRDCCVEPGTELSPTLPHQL
Sequence of Homeodomain-interacting protein kinase 1 (Q86Z02 whole entry, looked up): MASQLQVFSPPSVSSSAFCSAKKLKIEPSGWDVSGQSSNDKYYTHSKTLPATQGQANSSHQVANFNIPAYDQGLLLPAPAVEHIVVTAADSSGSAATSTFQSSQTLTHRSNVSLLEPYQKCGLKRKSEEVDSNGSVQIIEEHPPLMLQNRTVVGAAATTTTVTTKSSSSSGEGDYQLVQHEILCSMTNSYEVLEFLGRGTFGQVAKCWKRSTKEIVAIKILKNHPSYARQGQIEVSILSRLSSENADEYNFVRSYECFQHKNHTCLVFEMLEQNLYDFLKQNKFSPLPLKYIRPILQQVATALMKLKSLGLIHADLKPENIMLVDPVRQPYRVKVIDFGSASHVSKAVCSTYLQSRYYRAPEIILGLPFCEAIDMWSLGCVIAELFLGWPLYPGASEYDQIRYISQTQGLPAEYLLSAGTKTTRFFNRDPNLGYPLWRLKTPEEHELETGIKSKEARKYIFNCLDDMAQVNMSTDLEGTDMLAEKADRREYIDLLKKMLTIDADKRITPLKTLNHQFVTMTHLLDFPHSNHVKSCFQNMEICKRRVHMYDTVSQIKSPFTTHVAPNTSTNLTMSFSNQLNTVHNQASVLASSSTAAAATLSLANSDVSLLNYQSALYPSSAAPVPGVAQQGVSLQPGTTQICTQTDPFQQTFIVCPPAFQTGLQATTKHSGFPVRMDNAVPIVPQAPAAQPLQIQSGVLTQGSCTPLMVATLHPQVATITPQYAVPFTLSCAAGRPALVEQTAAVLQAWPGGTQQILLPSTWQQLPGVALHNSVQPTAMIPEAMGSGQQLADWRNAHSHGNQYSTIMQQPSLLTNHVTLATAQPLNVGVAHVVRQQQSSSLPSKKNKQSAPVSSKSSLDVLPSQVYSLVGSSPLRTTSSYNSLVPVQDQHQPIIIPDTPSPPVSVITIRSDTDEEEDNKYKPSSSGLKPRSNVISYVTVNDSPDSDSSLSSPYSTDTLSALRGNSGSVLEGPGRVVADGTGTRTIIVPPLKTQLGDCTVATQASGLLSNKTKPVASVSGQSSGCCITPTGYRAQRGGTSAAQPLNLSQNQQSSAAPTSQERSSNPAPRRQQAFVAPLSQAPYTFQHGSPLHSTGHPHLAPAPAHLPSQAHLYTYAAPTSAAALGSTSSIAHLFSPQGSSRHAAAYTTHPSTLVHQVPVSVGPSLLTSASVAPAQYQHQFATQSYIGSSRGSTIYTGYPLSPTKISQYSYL
Sequence of Calcium/calmodulin-dependent protein kinase kinase 1 (Homo sapiens) (Q8N5S9 whole entry, looked up): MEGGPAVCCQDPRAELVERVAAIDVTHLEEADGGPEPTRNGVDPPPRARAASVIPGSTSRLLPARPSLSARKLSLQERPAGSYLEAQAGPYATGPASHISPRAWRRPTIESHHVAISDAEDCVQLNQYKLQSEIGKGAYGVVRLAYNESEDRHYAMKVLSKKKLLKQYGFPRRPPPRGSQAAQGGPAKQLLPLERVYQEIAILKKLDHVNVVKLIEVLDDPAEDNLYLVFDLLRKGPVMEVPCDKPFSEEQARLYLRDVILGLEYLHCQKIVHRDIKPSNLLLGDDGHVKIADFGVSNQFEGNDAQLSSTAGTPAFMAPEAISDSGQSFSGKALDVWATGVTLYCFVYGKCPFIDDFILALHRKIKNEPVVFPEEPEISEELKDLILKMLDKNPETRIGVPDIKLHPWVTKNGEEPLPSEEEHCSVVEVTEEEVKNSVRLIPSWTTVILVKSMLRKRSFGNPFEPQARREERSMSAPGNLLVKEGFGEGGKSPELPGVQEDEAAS
Sequence of Histone-lysine N-methyltransferase, H3 lysine-36 specific (Homo sapiens) (Q96L73 whole entry): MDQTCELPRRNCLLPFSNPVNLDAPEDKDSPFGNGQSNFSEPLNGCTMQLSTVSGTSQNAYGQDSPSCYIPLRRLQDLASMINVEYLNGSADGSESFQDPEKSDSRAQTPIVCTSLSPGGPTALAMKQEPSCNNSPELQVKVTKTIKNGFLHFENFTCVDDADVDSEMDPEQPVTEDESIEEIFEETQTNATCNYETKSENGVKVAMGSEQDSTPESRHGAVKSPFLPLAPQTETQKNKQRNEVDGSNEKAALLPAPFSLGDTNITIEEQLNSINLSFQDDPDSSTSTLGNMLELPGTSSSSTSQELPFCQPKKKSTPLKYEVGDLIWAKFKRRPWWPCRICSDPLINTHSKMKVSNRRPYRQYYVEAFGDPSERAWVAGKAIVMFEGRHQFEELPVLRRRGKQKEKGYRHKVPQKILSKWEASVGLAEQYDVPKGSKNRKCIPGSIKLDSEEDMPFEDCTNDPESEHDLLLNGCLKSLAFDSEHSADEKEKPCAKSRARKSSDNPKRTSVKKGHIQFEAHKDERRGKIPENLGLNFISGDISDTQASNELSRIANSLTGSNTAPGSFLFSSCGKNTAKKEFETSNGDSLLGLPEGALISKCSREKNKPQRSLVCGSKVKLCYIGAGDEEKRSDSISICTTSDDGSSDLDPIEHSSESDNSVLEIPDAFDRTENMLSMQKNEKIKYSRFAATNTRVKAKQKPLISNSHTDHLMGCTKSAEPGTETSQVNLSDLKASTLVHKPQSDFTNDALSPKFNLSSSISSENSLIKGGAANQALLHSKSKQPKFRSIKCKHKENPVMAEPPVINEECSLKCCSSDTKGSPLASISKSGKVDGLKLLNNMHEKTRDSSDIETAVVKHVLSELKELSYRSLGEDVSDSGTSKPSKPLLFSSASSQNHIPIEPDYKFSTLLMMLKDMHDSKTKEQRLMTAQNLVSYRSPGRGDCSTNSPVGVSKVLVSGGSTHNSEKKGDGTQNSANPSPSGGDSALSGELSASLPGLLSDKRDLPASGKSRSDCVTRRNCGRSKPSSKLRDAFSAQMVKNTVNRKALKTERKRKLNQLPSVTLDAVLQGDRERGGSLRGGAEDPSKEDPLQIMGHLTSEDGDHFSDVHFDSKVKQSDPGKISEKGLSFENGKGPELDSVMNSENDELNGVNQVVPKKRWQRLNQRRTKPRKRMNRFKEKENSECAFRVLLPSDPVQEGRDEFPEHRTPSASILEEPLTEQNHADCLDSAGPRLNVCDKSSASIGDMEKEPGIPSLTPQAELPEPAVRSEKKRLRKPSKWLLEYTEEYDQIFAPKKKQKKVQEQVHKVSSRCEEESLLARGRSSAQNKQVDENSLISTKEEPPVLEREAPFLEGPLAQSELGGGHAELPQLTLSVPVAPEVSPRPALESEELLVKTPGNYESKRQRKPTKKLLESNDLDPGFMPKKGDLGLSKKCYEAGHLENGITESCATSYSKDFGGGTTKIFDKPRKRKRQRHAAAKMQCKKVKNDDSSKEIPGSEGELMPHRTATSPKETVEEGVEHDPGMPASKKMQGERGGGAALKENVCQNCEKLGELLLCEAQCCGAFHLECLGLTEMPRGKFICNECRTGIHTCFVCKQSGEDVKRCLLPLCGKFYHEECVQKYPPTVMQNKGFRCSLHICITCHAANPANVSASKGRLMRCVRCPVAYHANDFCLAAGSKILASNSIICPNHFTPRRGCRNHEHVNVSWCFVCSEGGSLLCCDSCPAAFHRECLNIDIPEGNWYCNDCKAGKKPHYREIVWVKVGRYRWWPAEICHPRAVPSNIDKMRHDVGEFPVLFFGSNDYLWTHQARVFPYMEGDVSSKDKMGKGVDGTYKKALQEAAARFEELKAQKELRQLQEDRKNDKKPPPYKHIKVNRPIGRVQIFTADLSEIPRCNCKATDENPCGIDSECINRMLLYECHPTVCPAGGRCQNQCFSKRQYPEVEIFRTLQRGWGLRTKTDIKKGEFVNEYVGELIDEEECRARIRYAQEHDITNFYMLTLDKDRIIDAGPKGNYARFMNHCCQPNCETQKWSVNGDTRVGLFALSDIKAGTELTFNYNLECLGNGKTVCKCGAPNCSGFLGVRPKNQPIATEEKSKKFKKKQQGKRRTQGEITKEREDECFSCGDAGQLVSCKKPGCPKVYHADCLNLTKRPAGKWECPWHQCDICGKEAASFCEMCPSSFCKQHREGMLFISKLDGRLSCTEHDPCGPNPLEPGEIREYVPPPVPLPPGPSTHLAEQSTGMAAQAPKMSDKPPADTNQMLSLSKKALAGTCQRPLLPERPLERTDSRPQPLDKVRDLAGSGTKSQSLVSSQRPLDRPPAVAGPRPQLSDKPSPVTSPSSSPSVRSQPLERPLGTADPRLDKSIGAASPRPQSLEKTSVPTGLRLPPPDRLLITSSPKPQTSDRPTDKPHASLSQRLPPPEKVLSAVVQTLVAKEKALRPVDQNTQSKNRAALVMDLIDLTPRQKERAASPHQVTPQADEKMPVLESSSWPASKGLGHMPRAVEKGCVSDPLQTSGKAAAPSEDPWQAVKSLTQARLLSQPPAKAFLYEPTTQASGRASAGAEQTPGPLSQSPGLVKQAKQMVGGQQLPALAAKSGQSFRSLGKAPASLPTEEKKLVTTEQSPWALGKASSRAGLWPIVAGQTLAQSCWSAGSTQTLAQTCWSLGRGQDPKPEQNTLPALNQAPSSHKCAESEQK

For `Cn1cc(-n2cnc3c(NCc4nc5cc(Cl)c(Cl)cc5[nH]4)nc(N4CCOCC4)nc32)cn1`, the % of inhibition in assay [1] was -49.1%.

On to `CC(=O)c1cc(-c2ccccc2OCC2CC2)c2ncccn12`, for which the % of control in assay [2] amounted to 107%.

Take `CNC(=O)Nc1ccc(-c2nc(N3CC4CCC(C3)O4)c3cnn(C4CCC5(CC4)OCCO5)c3n2)cc1`: the % of control in [3] turned out to be 100%.

Regarding `Cc1cc([C@@H](C)Nc2ccccc2C(=O)O)c2nc(N3CCOCC3)cc(=O)n2c1` [AZD-6482], in assay [4], the % of control stood at 100%.

Regarding `CC[C@@H]1[C@H](F)C(=O)N[C@@H]1COc1nccc2cc(C(N)=O)c(OC)cc12` [ZIMLOVISERTIB], the % of inhibition is 15.8% in [5], -0.8% in assay [6] and -14.5% in [7]. For `CNCCN1CCC(c2cc(CN(C)C(=O)c3cccc(Oc4ccccc4)c3)ccn2)CC1`, in assay [8], the % activity is greater than 90%. Consider `CN(C)C/C=C/C(=O)Nc1ccc(C(=O)N2CCCC(Nc3ncc(Cl)c(-c4c[nH]c5ccccc45)n3)C2)cc1` (centres undefined), for which, in [9], the % of control was 80%. For `COc1cc(Nc2nc(C)cc(-c3cnn4nc(OC)ccc34)n2)cc(C(F)(F)F)c1`, the % of control in [10] is 97%. As to `CC(C)(O)[C@H](F)CN1Cc2cc(NC(=O)c3cnn4cccnc34)c(N3CCOCC3)cc2C1=O`, the dTM in [11] worked out at 1 K. As to `Nc1cnc(N2CCc3cc(S(=O)(=O)Nc4c(F)cc(Cl)cc4F)cc(N4CCCC4=O)c32)nc1` [TP-020n], the % of control in [12] amounted to 71%.

`COc1cc(N(C)c2ccnc3ccc(C(F)(F)F)cc23)cc(OC)c1OC` had a % binding in assay [13] of 91%.

As for `C=CC(=O)Nc1ccc(C(=O)Nc2[nH]nc3c2CN(C(=O)N[C@H](CN(C)C)c2ccccc2)C3(C)C)cc1`, the % of engagement in assay [14] is -10.2%.
